Earlier results on one compound are cited in patent US6020121A (priority 1996, dated 2000).

SMILES strings stand for the structures.

The series relates to production of several toxins. Conditions: Agr independent; cited from earlier work.

Take `CCCCCCCCCCCC(=O)OCC(O)CO` (stereo not shown) [GML, Glycerol monolaureate, reference compound]: the “production of several toxins” value is given as “lower the production of several toxins in an Agr independent manner”.
